These are literature values, as cited in US11253534B2, “Method of preventing COVID-19 infection” (priority 2020, dated 2022).

For the data set the following is noted: in vivo.

Each structure is given as a SMILES string.

On to `CCN(CCO)CCCC(C)Nc1ccnc2cc(Cl)ccc12` (stereo not shown) [hydroxychloroquine], for which the half-life result is listed as “up to 32 days”.
